These results are taken from patent US9637483B2, “Heterocyclic compound” (TAKEDA PHARMACEUTICAL COMPANY LIMITED, priority 2013, dated 2017).

What all share (format): biochemical
The target in assay [1] is T1, JAK2 (Homo sapiens, UniProt O60674).
T1 construct: purchased Invitrogen
The assay is described as follows: JAK2 enzyme inhibition test (LANCE method). The conditions noted are these: 1 μM test compound; for inhibition at 1 µM: read-out: JAK2 enzyme inhibitory activity (%, 1 μM). In a few lines:
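Recombinant JAK2 (6 ng/mL solution) phosphorylated ULight-JAK1 peptide (300 nM solution) with ATP (45 μM solution) in pH 7.5 HEPES/MgCl2/DTT buffer for 1 hr at room temperature. After EDTA stop and europium anti-phosphotyrosine antibody for 1 hr, TR-FRET read at 665 nm; inhibition relative to enzyme-free wells as 100%.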

Assay [2] has as its target T2, JAK1 (Homo sapiens, UniProt P23458).
T2 construct: purchased Invitrogen
Briefly: JAK1 enzyme inhibition test (LANCE method). The following applies: 1 μM test compound; for inhibition at 1 µM: read-out: JAK1 enzyme inhibitory activity (%, 1 μM). The method, boiled down:
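TR-FRET (LANCE) with ULight-JAK1 peptide (300 nM working solution) and ATP (150 μM working solution) in HEPES pH 7.5, MgCl2, EGTA, DTT buffer; 1 h at room temperature. EDTA stop plus Eu-anti-phosphotyrosine antibody, 665 nm read after 1 h. Inhibition relative to enzyme-free wells as 100%.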

For assay [3], the target named is T3, JAK3 (Homo sapiens, UniProt P52333).
T3 construct: purchased Invitrogen
T3 sequence (P52333 1-1124): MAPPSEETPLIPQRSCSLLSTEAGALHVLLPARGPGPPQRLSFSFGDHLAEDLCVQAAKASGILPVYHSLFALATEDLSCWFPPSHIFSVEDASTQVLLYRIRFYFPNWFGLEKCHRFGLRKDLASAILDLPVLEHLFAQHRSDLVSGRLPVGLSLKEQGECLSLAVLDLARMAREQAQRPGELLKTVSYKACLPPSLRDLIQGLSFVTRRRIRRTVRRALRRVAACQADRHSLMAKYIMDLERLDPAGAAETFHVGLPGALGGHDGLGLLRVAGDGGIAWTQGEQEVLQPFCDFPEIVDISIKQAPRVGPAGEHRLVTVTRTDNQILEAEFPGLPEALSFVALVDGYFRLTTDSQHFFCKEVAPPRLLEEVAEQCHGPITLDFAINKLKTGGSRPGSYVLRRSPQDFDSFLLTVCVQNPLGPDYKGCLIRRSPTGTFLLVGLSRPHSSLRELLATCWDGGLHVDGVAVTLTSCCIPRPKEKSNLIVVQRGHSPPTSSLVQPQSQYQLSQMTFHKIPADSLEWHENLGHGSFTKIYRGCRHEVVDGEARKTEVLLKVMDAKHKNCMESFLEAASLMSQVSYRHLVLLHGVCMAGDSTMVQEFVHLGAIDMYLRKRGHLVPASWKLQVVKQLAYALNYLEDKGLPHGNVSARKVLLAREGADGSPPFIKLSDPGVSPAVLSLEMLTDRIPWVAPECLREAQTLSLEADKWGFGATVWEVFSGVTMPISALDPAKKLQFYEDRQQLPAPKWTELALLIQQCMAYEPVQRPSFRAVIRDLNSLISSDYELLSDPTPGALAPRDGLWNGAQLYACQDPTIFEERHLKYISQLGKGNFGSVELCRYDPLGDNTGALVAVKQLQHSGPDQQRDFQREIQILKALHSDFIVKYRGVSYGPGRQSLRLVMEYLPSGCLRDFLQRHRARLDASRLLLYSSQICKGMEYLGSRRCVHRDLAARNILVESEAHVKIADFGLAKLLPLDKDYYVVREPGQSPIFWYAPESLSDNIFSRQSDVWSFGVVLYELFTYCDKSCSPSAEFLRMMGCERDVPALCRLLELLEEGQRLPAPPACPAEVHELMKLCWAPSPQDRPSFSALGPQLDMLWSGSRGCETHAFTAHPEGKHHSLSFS
The assay is described as follows: JAK3 enzyme inhibition test (LANCE method). The conditions noted are these: 1 μM test compound; for inhibition at 1 µM: read-out: JAK3 enzyme inhibitory activity (%, 1 μM). The method, boiled down:
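Recombinant JAK3 (12 ng/mL solution) with ULight-JAK1 peptide (300 nM solution) and ATP (15 μM solution) in HEPES pH 7.5 buffer, 1 h at room temperature. EDTA stop with Eu-anti-phosphotyrosine antibody; TR-FRET at 665 nm. Inhibition relative to enzyme-free wells as 100%.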

For assay [4], the target named is T4, TYK2 (Homo sapiens, UniProt P29597).
T4 construct: purchased Invitrogen
T4 sequence (P29597 whole entry): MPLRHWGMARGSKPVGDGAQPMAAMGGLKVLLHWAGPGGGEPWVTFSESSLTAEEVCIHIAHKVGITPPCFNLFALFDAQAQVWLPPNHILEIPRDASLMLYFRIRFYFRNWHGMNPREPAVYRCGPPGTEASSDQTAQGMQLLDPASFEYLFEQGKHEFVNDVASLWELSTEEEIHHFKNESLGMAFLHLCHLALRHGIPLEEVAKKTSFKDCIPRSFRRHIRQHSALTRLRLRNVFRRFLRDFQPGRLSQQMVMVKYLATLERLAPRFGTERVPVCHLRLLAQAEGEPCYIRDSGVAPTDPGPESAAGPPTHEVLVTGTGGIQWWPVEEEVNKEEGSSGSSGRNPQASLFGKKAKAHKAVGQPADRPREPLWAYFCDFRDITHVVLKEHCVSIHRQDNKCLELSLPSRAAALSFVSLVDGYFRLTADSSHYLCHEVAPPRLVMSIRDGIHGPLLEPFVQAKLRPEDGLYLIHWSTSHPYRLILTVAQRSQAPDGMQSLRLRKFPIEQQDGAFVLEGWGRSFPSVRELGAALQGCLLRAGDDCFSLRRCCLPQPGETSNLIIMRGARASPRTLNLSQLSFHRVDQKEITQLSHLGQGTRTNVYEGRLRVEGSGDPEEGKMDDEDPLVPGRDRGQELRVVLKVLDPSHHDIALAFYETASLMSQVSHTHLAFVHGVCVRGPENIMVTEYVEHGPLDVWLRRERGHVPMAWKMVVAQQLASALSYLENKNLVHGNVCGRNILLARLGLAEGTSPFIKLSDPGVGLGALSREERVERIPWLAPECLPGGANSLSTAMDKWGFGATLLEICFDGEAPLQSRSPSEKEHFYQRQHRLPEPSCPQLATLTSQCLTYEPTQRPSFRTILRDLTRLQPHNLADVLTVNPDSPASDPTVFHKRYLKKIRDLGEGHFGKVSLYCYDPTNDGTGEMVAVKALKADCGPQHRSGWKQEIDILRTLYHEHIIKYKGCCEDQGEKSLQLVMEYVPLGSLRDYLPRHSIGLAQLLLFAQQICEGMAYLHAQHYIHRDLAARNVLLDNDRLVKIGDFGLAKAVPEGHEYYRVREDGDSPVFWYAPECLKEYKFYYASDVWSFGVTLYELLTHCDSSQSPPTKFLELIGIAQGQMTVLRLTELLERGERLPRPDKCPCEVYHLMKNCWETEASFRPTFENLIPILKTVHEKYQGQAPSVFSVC
Briefly: TYK2 enzyme inhibition test (LANCE method). The following applies: 1 μM test compound; read-out: TYK2 enzyme inhibitory activity (%, 1 μM). The method, boiled down: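 Recombinant TYK2 (375 ng/mL working solution) with ULight-JAK1 peptide (300 nM working solution) and ATP (30 μM working solution) in HEPES pH 7.5 buffer with MgCl2, EGTA, DTT, Tween20, BSA, reacted 1 h at RT. EDTA-stopped, Eu-anti-phosphotyrosine TR-FRET read at 665 nm; inhibition relative to enzyme-free wells as 100%.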

Each structure is given as a SMILES string.

T1 sequence (O60674 whole entry): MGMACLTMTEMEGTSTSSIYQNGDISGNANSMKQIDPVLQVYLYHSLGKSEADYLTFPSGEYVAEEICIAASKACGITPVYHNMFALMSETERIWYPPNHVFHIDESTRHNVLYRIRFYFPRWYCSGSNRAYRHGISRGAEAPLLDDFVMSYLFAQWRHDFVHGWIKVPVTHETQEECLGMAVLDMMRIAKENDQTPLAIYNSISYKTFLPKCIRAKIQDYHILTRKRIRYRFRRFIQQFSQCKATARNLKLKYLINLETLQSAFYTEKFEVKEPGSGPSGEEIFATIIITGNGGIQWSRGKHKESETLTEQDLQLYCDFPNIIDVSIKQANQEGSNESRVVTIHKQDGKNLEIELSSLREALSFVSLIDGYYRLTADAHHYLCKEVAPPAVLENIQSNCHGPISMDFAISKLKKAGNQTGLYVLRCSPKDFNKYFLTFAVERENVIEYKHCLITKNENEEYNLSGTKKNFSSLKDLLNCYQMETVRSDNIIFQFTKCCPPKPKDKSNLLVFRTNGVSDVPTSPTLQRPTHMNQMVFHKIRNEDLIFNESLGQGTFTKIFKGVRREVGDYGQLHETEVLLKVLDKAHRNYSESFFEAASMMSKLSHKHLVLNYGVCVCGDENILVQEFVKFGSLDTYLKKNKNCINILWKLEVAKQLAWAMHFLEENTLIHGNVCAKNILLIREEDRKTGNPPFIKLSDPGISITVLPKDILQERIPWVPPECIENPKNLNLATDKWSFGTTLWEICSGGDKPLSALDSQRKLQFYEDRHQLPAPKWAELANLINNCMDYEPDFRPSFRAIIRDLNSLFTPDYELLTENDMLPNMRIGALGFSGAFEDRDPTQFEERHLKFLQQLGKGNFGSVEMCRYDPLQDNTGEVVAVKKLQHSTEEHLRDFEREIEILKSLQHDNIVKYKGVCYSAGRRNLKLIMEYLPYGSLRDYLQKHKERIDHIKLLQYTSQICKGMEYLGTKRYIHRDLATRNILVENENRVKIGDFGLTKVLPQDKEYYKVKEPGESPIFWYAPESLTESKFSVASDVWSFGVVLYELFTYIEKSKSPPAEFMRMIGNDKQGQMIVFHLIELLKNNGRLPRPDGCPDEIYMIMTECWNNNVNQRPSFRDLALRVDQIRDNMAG
T2 sequence (P23458 whole entry): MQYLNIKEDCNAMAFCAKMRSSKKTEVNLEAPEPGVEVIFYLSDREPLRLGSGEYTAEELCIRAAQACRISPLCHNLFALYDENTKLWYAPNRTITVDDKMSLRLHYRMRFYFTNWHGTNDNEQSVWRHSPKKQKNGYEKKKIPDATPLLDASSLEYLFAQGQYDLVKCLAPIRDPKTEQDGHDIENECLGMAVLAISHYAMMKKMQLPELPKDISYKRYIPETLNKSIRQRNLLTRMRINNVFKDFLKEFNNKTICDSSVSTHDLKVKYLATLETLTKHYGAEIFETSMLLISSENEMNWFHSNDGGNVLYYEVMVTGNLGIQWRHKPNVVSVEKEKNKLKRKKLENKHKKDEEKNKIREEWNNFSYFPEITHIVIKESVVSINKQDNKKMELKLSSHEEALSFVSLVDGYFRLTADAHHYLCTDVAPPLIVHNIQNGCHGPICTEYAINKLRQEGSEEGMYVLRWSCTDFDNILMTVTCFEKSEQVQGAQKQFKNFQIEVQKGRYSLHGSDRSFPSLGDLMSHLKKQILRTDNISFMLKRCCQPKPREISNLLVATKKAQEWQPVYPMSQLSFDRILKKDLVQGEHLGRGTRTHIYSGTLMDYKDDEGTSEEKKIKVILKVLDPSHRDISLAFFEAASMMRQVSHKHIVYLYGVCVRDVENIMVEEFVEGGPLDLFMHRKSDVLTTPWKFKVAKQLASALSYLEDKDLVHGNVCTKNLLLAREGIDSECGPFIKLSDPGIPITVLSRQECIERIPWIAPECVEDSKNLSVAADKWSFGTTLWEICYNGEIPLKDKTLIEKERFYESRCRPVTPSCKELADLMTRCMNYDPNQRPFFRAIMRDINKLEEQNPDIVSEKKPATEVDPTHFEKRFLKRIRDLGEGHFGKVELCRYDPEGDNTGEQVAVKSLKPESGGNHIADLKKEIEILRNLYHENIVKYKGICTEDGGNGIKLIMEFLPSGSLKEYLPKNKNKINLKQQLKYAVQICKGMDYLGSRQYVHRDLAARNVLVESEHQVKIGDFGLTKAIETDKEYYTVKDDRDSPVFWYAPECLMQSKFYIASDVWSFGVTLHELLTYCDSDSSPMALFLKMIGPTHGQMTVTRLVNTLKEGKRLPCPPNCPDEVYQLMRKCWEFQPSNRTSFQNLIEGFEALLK

Consider `CC(C)N(C)c1cc(-c2cn(-c3c(F)cccc3C#N)c(=O)c3c(N)n[nH]c23)nn1C` [Example 122, 2-(3-amino-7-(5-(isopropyl(methyl)amino)-1-methyl-1H-pyrazol-3-yl)-4-oxo-1,4-dihydro-5H-pyrazolo[4,3-c]pyridin-5-yl)-3-fluorobenzonitrile], for which the inhibition at 1 µM in assay [1] stood at 93%; in assay [2] it was 97%; in assay [3], 97%; in assay [4], 101%.
On to `CC(C)[C@H](C)n1cc(-c2cc(C3CCOCC3)n(C)n2)c2[nH]nc(N)c2c1=O` [Example 58], for which the inhibition at 1 µM turned out to be 99% in assay [1], 97% in assay [2], 100% in assay [3] and 100% in assay [4].
Turning to `CC(C)[C@H](C)n1cc(-c2cc(N3CC[C@H](O)C3)n(C)n2)c2[nH]nc(N)c2c1=O` [Example 23, 3-amino-7-(5-((3S)-3-hydroxypyrrolidin-1-yl)-1-methyl-1H-pyrazol-3-yl)-5-((2S)-3-methylbutan-2-yl)-1,5-dihydro-4H-pyrazolo[4,3-c]pyridin-4-one], the inhibition at 1 µM came to 98% in assay [1], 97% in assay [2], 99% in assay [3] and 99% in assay [4].
As to `COCCn1nc(-c2cn([C@@H](C)C(C)C)c(=O)c3c(N)n[nH]c23)cc1C(C)(C)O` [Example 36, 3-amino-7-(5-(2-hydroxypropan-2-yl)-1-(2-methoxyethyl)-1H-pyrazol-3-yl)-5-((2S)-3-methylbutan-2-yl)-1,5-dihydro-4H-pyrazolo[4,3-c]pyridin-4-one], the inhibition at 1 µM came out at 80% in assay [1], 55% in assay [2], 85% in assay [3] and 91% in assay [4].
The corresponding values for `CN(C[C@H]1CCCN1c1cc(-c2cn(C(C3CC3)C3CC3)c(=O)c3c(N)n[nH]c23)nn1C)S(C)(=O)=O` [Example 176, N-(((2R)-1-(3-(3-amino-5-(dicyclopropylmethyl)-4-oxo-4,5-dihydro-1H-pyrazolo[4,3-c]pyridin-7-yl)-1-methyl-1H-pyrazol-5-yl)pyrrolidin-2-yl)methyl)-N-methylmethanesulfonamide] are 98%, 97%, 99% and 98%.
The corresponding values for `Cn1nc(-c2cn(C(C3CC3)C3CC3)c(=O)c3c(N)n[nH]c23)cc1N1CCS(=O)(=O)C(C)(C)C1` [Example 88, 3-amino-5-(dicyclopropylmethyl)-7-(5-(2,2-dimethyl-1,1-dioxidothiomorpholin-4-yl)-1-methyl-1H-pyrazol-3-yl)-1,5-dihydro-4H-pyrazolo[4,3-c]pyridin-4-one] are 100%, 99%, 99% and 99%.
Consider `COC1(c2cc(-c3cn(C(C#N)C(C)C)c(=O)c4c(N)n[nH]c34)nn2C)CCC(F)(F)CC1` (centres unmarked) [Example 137, 2-(3-amino-7-(5-(4,4-difluoro-1-methoxycyclohexyl)-1-methyl-1H-pyrazol-3-yl)-4-oxo-1,4-dihydro-5H-pyrazolo[4,3-c]pyridin-5-yl)-3-methylbutanenitrile], for which the inhibition at 1 µM in assay [1] and in assay [4] was 99% each time. The “JAK1 enzyme inhibitory activity (%, 1 μM)” value in assay [2] was 92%. The “JAK3 enzyme inhibitory activity (%, 1 μM)” value in assay [3] (1 µM) came to 98%.
Regarding `CC(C)C(C#N)n1cc(-c2cc(N3CCOCC3)n(C)n2)c2[nH]nc(N)c2c1=O` (centres unmarked) [Example 113, 2-(3-amino-7-(1-methyl-5-(morpholin-4-yl)-1H-pyrazol-3-yl)-4-oxo-1,4-dihydro-5H-pyrazolo[4,3-c]pyridin-5-yl)-3-methylbutanenitrile], the “JAK2 enzyme inhibitory activity (%, 1 μM)” value in assay [1] (1 µM) stood at 98%. In addition, in assay [2], the “JAK1 enzyme inhibitory activity (%, 1 μM)” value turned out to be 97%. For the same molecule, the inhibition at 1 µM in assay [3] and in assay [4] was 99% throughout.
Take `COC[C@H]1CCCN1c1cc(-c2cn(C(C3CC3)C3CC3)c(=O)c3c(N)n[nH]c23)nn1C` [Example 159, 3-amino-5-(dicyclopropylmethyl)-7-(5-((2R)-2-(methoxymethyl)pyrrolidin-1-yl)-1-methyl-1H-pyrazol-3-yl)-1,5-dihydro-4H-pyrazolo[4,3-c]pyridin-4-one]: the inhibition at 1 µM in assay [1] was determined as 99%; in assay [2], 99%; in assay [3], 100%; in assay [4], 100%.
Consider `COC1CCN(c2cc(-c3cn([C@@H](C)C(C)C)c(=O)c4c(N)n[nH]c34)nn2C)CC1` [Example 14, 3-amino-7-(5-(4-methoxypiperidin-1-yl)-1-methyl-1H-pyrazol-3-yl)-5-((2S)-3-methylbutan-2-yl)-1,5-dihydro-4H-pyrazolo[4,3-c]pyridin-4-one], for which the inhibition at 1 µM amounted to 99% in assay [1], 97% in assay [2], 99% in assay [3] and 99% in assay [4].
Turning to `CC(C)[C@H](C)n1cc(-c2cc(N3CCN4CCCC4C3)n(C)n2)c2[nH]nc(N)c2c1=O` (stereo partly drawn) [Example 32, 3-amino-7-(5-(hexahydropyrrolo[1,2-a]pyrazin-2 (H)-yl)-1-methyl-1H-pyrazol-3-yl)-5-((2S)-3-methylbutan-2-yl)-1,5-dihydro-4H-pyrazolo[4,3-c]pyridin-4-one], the inhibition at 1 µM in assay [1] turned out to be 98%; in assay [2], 96%; in assay [3] it was 99%; in assay [4], 99%.
For the molecule `CC(C)[C@H](C)n1cc(-c2cc(N3CCN(C)CC3)n(C)n2)c2[nH]nc(N)c2c1=O` [Example 10, 3-amino-5-((2S)-3-methylbutan-2-yl)-7-(1-methyl-5-(4-methylpiperazin-1-yl)-1H-pyrazol-3-yl)-1,5-dihydro-4H-pyrazolo[4,3-c]pyridin-4-one], the inhibition at 1 µM in assay [1] is 98%; in assay [2] it was 96%; in assay [3] it was 99%; in assay [4], 99%.
In the case of `CC(C)[C@H](C)n1cc(-c2cc(N3CCCC3CN(C)C)n(C)n2)c2[nH]nc(N)c2c1=O` (stereo partly drawn) [Example 103, 3-amino-7-(5-(2-((dimethylamino)methyl)pyrrolidin-1-yl)-1-methyl-1H-pyrazol-3-yl)-5-((2S)-3-methylbutan-2-yl)-1,5-dihydro-4H-pyrazolo[4,3-c]pyridin-4-one], the inhibition at 1 µM in assay [1] amounted to 93%; in assay [3], 97%; in assay [4] it was 96%. In addition, the “JAK1 enzyme inhibitory activity (%, 1 μM)” value in assay [2] is 51%.
Turning to `CC(C)C(C(N)=O)n1cc(-c2cc(N3CCOCC3)n(C)n2)c2[nH]nc(N)c2c1=O` (centres unmarked) [Example 85, 2-(3-amino-7-(1-methyl-5-(morpholin-4-yl)-1H-pyrazol-3-yl)-4-oxo-1,4-dihydro-5H-pyrazolo[4,3-c]pyridin-5-yl)-3-methylbutanamide], the inhibition at 1 µM is 86% in assay [1], 68% in assay [2], 89% in assay [3] and 89% in assay [4].
